Reference: US9540362B2, “Sphingosine-1-phosphate receptor agonists, methods of preparing the same, and pharmaceutical compositions containing the same as an active agent” (LG LIFE SCIENCES LTD., priority 2013, dated 2017)

Assays:
[1] = tested on: lymphocytes in blood; assay: Rat peripheral blood lymphocyte decrease; assay type: in vivo; conditions: male SD rat, administered once, 6 hours after administration
Procedure: Evaluation of Rat Peripheral Blood Lymphocyte Decrease
Lymphocyte decrease in blood by S1P1 agonist was evaluated using a male SD rat. After adapting a rat weighing about 250 g to a breeding facility for one week, a test compound was administered to it once. At 3 hours, 6 hours, 24 hours and 48 hours after administration, blood was taken from a tail caudal vein, and about 200 μl of the blood was put into an EDTA tube while preventing it from clotting, followed by measurement of the number of lymphocytes in blood. The number of lymphocytes was analyzed by a hematological examination device, Hemoanalyzer. The doses of the test compounds were 3 mg/kg for Example 52, 94, 108, 117, 142, 145, 146, 148 and 149 compounds, and 1 mg/kg for Example 150, 151, 153, 154, 155, 158, 159 and 161 compounds.

[2] = biological target: human sphingosine-1-phosphate 1 receptor (S1P1 receptor) (Homo sapiens, UniProt P21453); assay: Ca2+ inducing ability using CHO cells overexpressing human S1P1 receptor (Calcium 5 assay kit); assay type: cell-based; conditions: CHO cells overexpressing human S1P1, calcium RFU; S1P 1 μM = 100%
human sphingosine-1-phosphate 1 receptor (S1P1 receptor), sequence (P21453 whole entry): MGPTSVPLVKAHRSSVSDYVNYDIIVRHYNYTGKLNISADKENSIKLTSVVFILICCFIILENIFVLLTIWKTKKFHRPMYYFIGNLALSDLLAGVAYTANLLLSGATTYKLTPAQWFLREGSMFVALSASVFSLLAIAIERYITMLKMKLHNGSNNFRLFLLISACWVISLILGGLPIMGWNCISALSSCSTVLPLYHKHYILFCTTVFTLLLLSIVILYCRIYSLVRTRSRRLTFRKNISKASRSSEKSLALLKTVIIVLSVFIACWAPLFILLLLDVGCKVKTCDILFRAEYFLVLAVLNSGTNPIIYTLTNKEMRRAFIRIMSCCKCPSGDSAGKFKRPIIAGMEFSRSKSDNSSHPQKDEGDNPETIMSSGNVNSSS
Text: Evaluation of Ca^2+ inducing ability of test compound using a cell line expressing human sphingosine-1-phosphate
CHO (Chinese hamster ovary) cells which overexpress human sphingosine-1-phosphate 1 receptor (S1P1 receptor) that react with sphingosine-1-phosphate (S1P) are used for a functional test method wherein an increase of calcium indicates a therapeutic efficacy of an agonist compound.
To prepare CHO cells which overexpress human S1P1˜S1P5, human clones for each subtype having HA at the N terminal residue (S1P1: EDG010TN00, S1P2: EDG020TN00, S1P3: EDG030TN00, S1P4: EDG060TN00, S1P5: EDG080TN00) were purchased from the Missouri S&T cDNA Resource Center and co-transfected with G-protein alpha subunit (G-alpha-16) into CHO-K1 cells.
A calcium measurement kit (Calcium 5 assay kit, Molecular Devices) was used to select an agonist compound. The principle of calcium measurement is that calcium-sensitive dyes are applied to cells, they enter into the cytoplasm of the cells during incubation, and when a ligand binds to a certain receptor to release calcium into the cytoplasm, the dyes bind to said calcium to induce fluorescence which is measured. This test method can sensitively measure only the intracellular calcium concentration change because any change that may occur outside the cells is masked by a masking dye.
The experimental procedure was as follows. One day before calcium measurement, CHO cells overexpressing hS1P1˜hS1P5 were dispensed into a 96-well plate (bottom clear black well) in 3×10^4 cells per well and cultured at 37° C. under 5% carbon dioxide condition for one day. 100 μl of calcium dyes mixed with Assay Buffer (1×HBSS, 20 mM HEPES, 2.5 mM probenecid, pH 7.4) were dispensed into culture solution in well and cultured at 37° C. for one hour. Test compounds were dissolved in 100% DMSO to prepare 1 μl solution per each concentration, and each solution was mixed with 199 μl Assay Buffer such that the concentrations were 50, 5, 0.5, 0.05, 0.005 and 0.0005 μM. The plate cultured with the calcium dyes was put into FlaxstationII (Molecular Devices), and the prepared test compounds (the final concentrations of the test compounds: 10, 1, 0.1, 0.01, 0.001 and 0.0001 μM) were programmed to be automatically inoculated in 50 μl per each well. For a total of 90 seconds, RFU (relative fluorescence unit) values were measured. The value of Reference (S1P substance 1 μM) deducting the blank value was set as 100%, and EC50 values of the test compounds were calculated by prism.

SMILES	EC50 [2]	Lymphocyte count (degree of decrease in lymphocyte number) ([1]; 3 mg/kg)	Lymphocyte count (degree of decrease in lymphocyte number) ([1]; 1 mg/kg)
CC(C)n1nc(Cl)c2cc(COc3ccc4cc(CN5CC(C(=O)O)C5)ccc4c3)ccc21 [Example 142, 1-[6-(3-chloro-1-isopropyl-1H-indazol-5-ylmethoxy)-naphthalen-2-ylmethyl]-azetidine-3-carboxylic acid]	0.007 µM	−80%	–
CC1=C(CN(C)CC(=O)O)CCc2cc(OCc3ccc4c(c3)c(Cl)nn4C(C)C)ccc21 [Example 145, {[6-(3-chloro-1-isopropyl-1H-indazol-5-ylmethoxy)-1-methyl-3,4-dihydro-naphthalen-2-ylmethyl]-methyl-amino}-acetic acid]	0.009 µM	−48%	–
CC(C)n1nc(Cl)c2cc(-c3nc(-c4cccc5c4CCN(S(N)(=O)=O)C5)no3)ccc21 [Example 108, 5-[5-(3-chloro-1-isopropyl-1H-indazol-5-yl)-[1,2,4]oxadiazol-3-yl]-3,4-dihydro-1H-isoquinoline-2-sulfonic acid amide]	0.02 µM	−70%	–

The next lines start with results.

EC50 [2]	SMILES	Lymphocyte count (degree of decrease in lymphocyte number) ([1]; 3 mg/kg)	Lymphocyte count (degree of decrease in lymphocyte number) ([1]; 1 mg/kg)
0.017 µM	CC(C)n1nc(Cl)c2cc(COc3ccc4c(c3)CCC(CN3CCC(F)(C(=O)O)CC3)=C4Cl)ccc21 [Example 154, 1-[1-chloro-6-(3-chloro-1-isopropyl-1H-indazol-5-ylmethoxy)-3,4-dihydro-naphthalen-2-ylmethyl]-4-fluoro-piperidine-4-carboxylic acid]	–	−65%
0.003 µM	CC(C)n1nc(Cl)c2cc(COc3ccc4c(c3)CCC(CN3CCC(F)(C(=O)O)C3)=C4Cl)ccc21 (centres unmarked) [Example 161, 1-[1-chloro-6-(3-chloro-1-isopropyl-1H-indazol-5-ylmethoxy)-3,4-dihydro-naphthalen-2-ylmethyl]-3-fluoro-pyrrolidine-3-carboxylic acid]	–	−65%
0.011 µM	CC(C)n1nc(Cl)c2cc(COc3ccc4c(c3)CCC(CN3CCC(C(=O)O)CC3)=C4Cl)ccc21 [Example 153, 1-[1-chloro-6-(3-chloro-1-isopropyl-1H-indazol-5-ylmethoxy)-3,4-dihydro-naphthalen-2-ylmethyl]-piperidine-4-carboxylic acid]	–	−80%
0.014 µM	CC(C)n1nc(Cl)c2cc(COc3ccc4c(c3)CCC(CN3CCCC(F)(C(=O)O)C3)=C4Cl)ccc21 (centres unmarked) [Example 158, 1-[1-chloro-6-(3-chloro-1-isopropyl-1H-indazol-5-ylmethoxy)-3,4-dihydro-naphthalen-2-ylmethyl]-3-fluoro-piperidine-3-carboxylic acid]	–	−30%
